# BindingDB's records for doi:10.1016/j.bmcl.2008.12.075 (Methylgene, 2009)
# Target: T1, Histone-arginine methyltransferase CARM1 (Mus musculus, UniProt Q9WVG6)
# T1 sequence (Q9WVG6 whole entry): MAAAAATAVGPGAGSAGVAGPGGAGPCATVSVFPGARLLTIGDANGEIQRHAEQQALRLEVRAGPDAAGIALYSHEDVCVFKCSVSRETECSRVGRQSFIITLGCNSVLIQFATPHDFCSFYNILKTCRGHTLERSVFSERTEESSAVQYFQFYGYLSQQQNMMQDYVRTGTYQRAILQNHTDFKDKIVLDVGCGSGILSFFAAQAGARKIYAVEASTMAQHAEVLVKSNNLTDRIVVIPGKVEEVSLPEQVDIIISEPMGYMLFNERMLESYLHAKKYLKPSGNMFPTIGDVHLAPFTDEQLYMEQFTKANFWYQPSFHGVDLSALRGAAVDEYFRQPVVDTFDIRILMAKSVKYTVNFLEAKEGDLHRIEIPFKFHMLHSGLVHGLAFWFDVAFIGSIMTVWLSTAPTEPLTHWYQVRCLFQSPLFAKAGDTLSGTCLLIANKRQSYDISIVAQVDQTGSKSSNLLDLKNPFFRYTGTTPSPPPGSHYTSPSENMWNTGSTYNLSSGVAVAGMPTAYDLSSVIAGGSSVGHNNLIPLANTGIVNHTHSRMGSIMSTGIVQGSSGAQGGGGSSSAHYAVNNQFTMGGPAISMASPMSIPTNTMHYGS
# Test: Inhibition of CARM-1 Enzymatic Activity
# Settings: pH 9; 22 °C
# Description: Histone H3 is used as the substrate for CARM-1 enzyme, and the methylation is monitored using tritiated S-Adenosyl-Methionine (SAM) as a methyl donor. The enzyme mixture containing test compound is left to pre-incubate for 10 minutes, followed by the addition of Histone H3/[3H] SAM mixture. After incubation, the mixture is spotted onto P30 Filtermat paper. The incorporated radioactivity is read using a Wallac Microbeta counter. The data is analyzed to generate IC50 values.
row,SMILES,IC50
1,C[C@H](N)C(=O)NCc1cc(-n2nc(C(F)(F)F)cc2C(=O)NCc2ccccn2)cs1 [1-(5-{[(2S)-2-aminopropanamido]methyl}thiophen-3-yl)-N-(pyridin-2-ylmethyl)-3-(trifluoromethyl)-1H-pyrazole-5-carboxamide],3.35 µM
2,C[C@H](N)C(=O)NCc1cccc(-n2nc(C(F)(F)F)cc2C(=O)NCc2ccccc2)c1,0.08 µM
3,"COc1ccccc1CNC(=O)c1cc(C(F)(F)F)nn1-c1cccc2c1CN(C(=O)[C@H](C)N)C2 [1-{2-[(2S)-2-aminopropanoyl]-2,3-dihydro-1H-isoindol-4-yl}-N-[(2-methoxyphenyl)methyl]-3-(trifluoromethyl)-1H-pyrazole-5-carboxamide]",> 10 µM
